Test results reported in ChEMBL document CHEMBL1136120, “Effect of catechol derivatives on cell growth and lipoxygenase activity” (Bioorg Med Chem Lett, 2003).

Columns and labels:
[1] = biological target: Polyunsaturated fatty acid lipoxygenase ALOX15 (Oryctolagus cuniculus) (UniProt P12530); assay: Inhibition of rabbit reticulocyte 15-lipoxygenase by compound (30 uM)
[2] = test system: MAC16; assay: Effect on metabolism of arachidonic acid for 12-HETE production through 12-LOX (12-lipoxygenase) pathway; assay type: functional, Mus musculus
[3] = test system: MAC16; assay: Effect on metabolism of arachidonic acid for 15-HETE production through 15-LOX (15-lipoxygenase) pathway; assay type: functional, Mus musculus
[4] = test system: MAC16; assay: Effect on metabolism of arachidonic acid for 5-HETE production through 5-LOX (5-lipoxygenase) pathway; assay type: functional, Mus musculus
[5] = test system: MAC16; assay: Inhibitory activity against MAC16 cell lines; assay type: functional, cell-based; conditions: Mus musculus
[6] = test system: MAC13; assay: Inhibitory activity against MAC13 cell lines; assay type: functional, cell-based; conditions: Mus musculus
[7] = test system: MAC16; assay: Effect on metabolism of arachidonic acid for 5-HETE production through 12-LOX (12-lipoxygenase) pathway; assay type: functional, Mus musculus
[8] = test system: MAC16; assay: Effect on metabolism of arachidonic acid for 5-HETE production through 15-LOX (15-lipoxygenase) pathway; assay type: functional, Mus musculus

Chain of Polyunsaturated fatty acid lipoxygenase ALOX15 (Oryctolagus cuniculus) (P12530 whole entry, looked up): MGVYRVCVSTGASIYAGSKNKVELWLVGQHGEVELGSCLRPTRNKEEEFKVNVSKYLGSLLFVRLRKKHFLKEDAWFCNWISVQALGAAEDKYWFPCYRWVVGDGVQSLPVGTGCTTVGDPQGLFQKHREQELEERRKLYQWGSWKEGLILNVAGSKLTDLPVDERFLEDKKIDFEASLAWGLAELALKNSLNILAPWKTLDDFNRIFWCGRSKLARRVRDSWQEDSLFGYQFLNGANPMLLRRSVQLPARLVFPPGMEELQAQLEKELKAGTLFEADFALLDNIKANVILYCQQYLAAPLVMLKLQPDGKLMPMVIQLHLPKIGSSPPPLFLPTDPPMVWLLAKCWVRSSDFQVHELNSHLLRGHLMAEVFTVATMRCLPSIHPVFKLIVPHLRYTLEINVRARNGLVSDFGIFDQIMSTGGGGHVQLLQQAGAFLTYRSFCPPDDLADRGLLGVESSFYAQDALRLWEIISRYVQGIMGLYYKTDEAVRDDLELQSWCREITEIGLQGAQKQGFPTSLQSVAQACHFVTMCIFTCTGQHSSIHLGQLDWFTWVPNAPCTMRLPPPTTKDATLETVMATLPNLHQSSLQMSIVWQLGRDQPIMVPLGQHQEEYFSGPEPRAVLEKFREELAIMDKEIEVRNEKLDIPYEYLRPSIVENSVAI

Row | Structure (SMILES) | inhibition [1] | IC50 [5] | IC50 [6] | Eicosanoid production [4] | further results
1 | O=C(Nc1ccc(/N=C(\S)Nc2ccc(O)c(O)c2)cc1)c1ccccc1O | 103% |  |  |  | 
2 | COc1ccccc1C(=O)Nc1ccc(CCC(=O)Nc2ccc3c(c2)OC(C)(CCc2ccccc2)O3)cc1 (configuration not stated) |  | > 50000 nM | > 50000 nM | 110 pM 2hr-1 | Eicosanoid production [7]: 78 pM 2hr-1; Eicosanoid production [8]: 91.5 pM 2hr-1
3 | CCCCCCCc1ccc(C(=O)Nc2ccc(O)c(O)c2)cc1 |  | 1000 nM | 900 nM |  | 
4 | O=C(CCc1ccc(NC(=O)c2ccccc2O)cc1)Nc1ccc(O)c(O)c1 | 99% |  |  |  | 

Continued, in another order:

Row | inhibition [1] | IC50 [5] | IC50 [6] | Structure (SMILES) | Eicosanoid production [4] | further results
5 | 103% |  |  | O=C(Nc1ccc(O)c(O)c1)c1ccc(NCc2ccccc2O)cc1 |  | 
6 | 102% | 2600 nM | 330 nM | O=C(CCc1cccc(NC(=O)c2ccccc2O)c1)Nc1ccc(O)c(O)c1 | 4.7 pM 2hr-1 | Eicosanoid production [2]: 7.8 pM 2hr-1; Eicosanoid production [3]: 5.3 pM 2hr-1
7 | 3% | 4750 nM | 6300 nM | CC1=C(C)C(=O)C(Cc2cccnc2)=C(C)C1=O | 13.3 pM 2hr-1 | Eicosanoid production [7]: 15 pM 2hr-1; Eicosanoid production [8]: 22.2 pM 2hr-1
8 | 102% | 300000 nM | 3000 nM | O=C(/C=C/c1ccc(NC(=O)c2ccccc2O)cc1)Nc1ccc(O)c(O)c1 |  | 
9 | 100% |  |  | O=C(Nc1ccc(O)c(O)c1)c1ccc(NC(=O)c2ccccc2O)cc1 |  | 
10 | 104% |  |  | O=C(Nc1ccc(NC(=O)c2ccccc2O)cc1)Nc1ccc(O)c(O)c1 |  | 
